# Where a name gives a salt, the structure may show the parent alone.
# How the values were obtained:
# 5-HT1A receptors = biological target: T1, 5-HT1A receptors (Homo sapiens, UniProt P08908); test: In vitro affinity test for 5-HT1A receptors; conditions: conventional binding technique, read-out: Ki with respect to 5-HT1A receptors
# T1 sequence (P08908 1-422): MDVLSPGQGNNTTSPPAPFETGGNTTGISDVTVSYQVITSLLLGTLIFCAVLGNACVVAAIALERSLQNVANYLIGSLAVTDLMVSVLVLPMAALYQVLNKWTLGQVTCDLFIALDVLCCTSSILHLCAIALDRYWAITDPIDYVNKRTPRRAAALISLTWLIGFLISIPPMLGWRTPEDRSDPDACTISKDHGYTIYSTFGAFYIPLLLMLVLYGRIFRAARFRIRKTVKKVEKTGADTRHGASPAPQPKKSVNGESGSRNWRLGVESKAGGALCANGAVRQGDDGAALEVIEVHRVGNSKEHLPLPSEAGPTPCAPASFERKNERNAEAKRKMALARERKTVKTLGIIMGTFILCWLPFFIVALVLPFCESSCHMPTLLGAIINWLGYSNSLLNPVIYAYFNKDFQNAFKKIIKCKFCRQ
# Experimental: (§1) EXAMPLE 8: In vitro affinity test for endazoline, α1 and α2 and 5-HT receptors
# (§2) The in vitro affinity tests for endazoline receptors were carried out according to a technique described by A. Parini et al. (Biochem. and Biophys. Res. Comm. 147(3), 1055, 1987), and according to conventional binding techniques for the other receptors.
# 5-HT1B receptors = 5-HT1B receptors (Rattus norvegicus, UniProt P28564); test: In vitro affinity test for 5-HT1B receptors; conditions: conventional binding technique, read-out: Ki with respect to 5-HT1B receptors
# Sequence of 5-HT1B receptors (P28564 whole entry): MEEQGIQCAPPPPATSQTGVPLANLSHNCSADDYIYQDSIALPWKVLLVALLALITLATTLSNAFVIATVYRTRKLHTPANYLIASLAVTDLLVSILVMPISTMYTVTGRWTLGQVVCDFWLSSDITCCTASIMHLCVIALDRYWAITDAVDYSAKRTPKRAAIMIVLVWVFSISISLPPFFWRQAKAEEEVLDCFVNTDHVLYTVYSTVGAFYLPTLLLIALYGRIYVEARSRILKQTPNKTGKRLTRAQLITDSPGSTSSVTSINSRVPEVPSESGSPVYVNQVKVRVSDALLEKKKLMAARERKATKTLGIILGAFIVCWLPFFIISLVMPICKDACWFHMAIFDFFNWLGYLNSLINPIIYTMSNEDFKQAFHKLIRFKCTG
# Experimental: as §1, §2
# 5 HT2 receptors = 5 HT2 receptors (Homo sapiens, UniProt P28223); test: In vitro affinity test for 5-HT2 receptors; conditions: conventional binding technique, read-out: Ki with respect to 5 HT2 receptors
# Sequence of 5 HT2 receptors (P28223 whole entry): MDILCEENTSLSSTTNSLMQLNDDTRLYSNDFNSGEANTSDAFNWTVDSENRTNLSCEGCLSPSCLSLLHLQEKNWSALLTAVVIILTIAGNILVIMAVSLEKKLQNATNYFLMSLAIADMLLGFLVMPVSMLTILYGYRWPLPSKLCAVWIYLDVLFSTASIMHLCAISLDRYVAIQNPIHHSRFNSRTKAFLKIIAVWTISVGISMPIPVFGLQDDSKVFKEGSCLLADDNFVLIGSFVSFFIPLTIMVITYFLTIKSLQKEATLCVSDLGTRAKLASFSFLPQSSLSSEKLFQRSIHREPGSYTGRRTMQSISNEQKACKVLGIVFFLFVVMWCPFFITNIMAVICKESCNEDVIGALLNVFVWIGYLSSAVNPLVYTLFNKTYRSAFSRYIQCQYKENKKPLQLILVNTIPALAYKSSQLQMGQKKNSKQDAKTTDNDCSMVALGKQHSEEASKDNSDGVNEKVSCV
# Experimental: as §1, §2
# 5-HT3 receptors = biological target: T2, 5-HT3 receptors (Homo sapiens, UniProt P46098); test: In vitro affinity test for 5-HT3 receptors; conditions: conventional binding technique, read-out: Ki with respect to 5-HT3 receptors
# T2 sequence (P46098 24-478): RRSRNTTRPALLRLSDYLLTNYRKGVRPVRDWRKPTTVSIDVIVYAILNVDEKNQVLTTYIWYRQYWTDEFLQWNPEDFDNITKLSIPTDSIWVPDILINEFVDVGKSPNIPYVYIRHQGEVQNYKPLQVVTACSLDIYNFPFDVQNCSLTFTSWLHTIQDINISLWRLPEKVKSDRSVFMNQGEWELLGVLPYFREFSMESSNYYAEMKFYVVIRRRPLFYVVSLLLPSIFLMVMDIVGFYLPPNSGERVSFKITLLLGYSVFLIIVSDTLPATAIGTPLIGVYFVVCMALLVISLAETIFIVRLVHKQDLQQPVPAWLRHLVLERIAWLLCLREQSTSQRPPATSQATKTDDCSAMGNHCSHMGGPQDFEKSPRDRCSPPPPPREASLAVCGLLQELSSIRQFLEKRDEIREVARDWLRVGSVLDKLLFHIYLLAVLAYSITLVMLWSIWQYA
# Experimental: as §1, §2
smiles,measurement,setting,value
"N=C(N)NN=CC(C1CC1)C1CC1 [Example 2, (2,2-Dicyclopropylethylidene)aminoguanidine hydrochloride]",Ki,5-HT1A receptors,~10 µM
same,Ki,5-HT1B receptors,~100 µM
same,Ki,5 HT2 receptors,~20 µM
same,Ki,5-HT3 receptors,~2 µM
